# According to patent US11634447B2 (priority 2012, dated 2023):
# Target: bacterial strain LF82 binding to the glycoprotein BSA-(Mannose)3
# Experiment: Bacterial Binding Assay (BBA)
# Format: cell-based, Escherichia coli
# Conditions: LF82/Luciferase strain binding to BSA-(Man)3 coated plates, luminescence; read-out: Bacterial Binding Assay IC50
# How it was run: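 Inhibition of LF82/luciferase E. coli adhesion is read as luminescence after washing off unbound cells. Compound and bacteria (10^7 per well) are co-incubated 40-75 min at room temperature on wells coated with 0.5-2 μg/mL BSA-(Man)3, with BSA-only wells as background; IC50 values derived.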
row,SMILES,IC50 [nM]
1,OC[C@H]1O[C@H](C#Cc2ccc(-c3ccc(C#C[C@H]4O[C@H](CO)[C@@H](O)[C@H](O)[C@@H]4O)s3)s2)[C@@H](O)[C@@H](O)[C@@H]1O [Compound 128],22

# Same assay, conditions: read-out: Bacterial Binding Assay IC50, LF82/Luciferase strain binding to BSA-(Man)3 coated plates, luminescence
row,SMILES,IC50 [nM]
1,"Cn1c2cc(C#C[C@H]3O[C@H](CO)[C@@H](O)[C@H](O)[C@@H]3O)ccc2c2ccc(C#C[C@H]3O[C@H](CO)[C@@H](O)[C@H](O)[C@@H]3O)cc21 [Compound 112, (2R,3S,4R,5S,6R)-2-(hydroxymethyl)-6-[2-[9-methyl-7-[2-[(2R,3S,4R,5S,6R)-3,4,5-trihydroxy-6-(hydroxymethyl)tetrahydropyran-2-yl]ethynyl]carbazol-2-yl]ethynyl]tetrahydropyran-3,4,5-triol]",17
2,"CCCCCC1(O)c2cc(C#C[C@H]3O[C@H](CO)[C@@H](O)[C@H](O)[C@@H]3O)ccc2-c2ccc(C#C[C@H]3O[C@H](CO)[C@@H](O)[C@H](O)[C@@H]3O)cc21 [Compound 113, (2R,3S,4R,5S,6R)-2-(hydroxymethyl)-6-[2-[9-hydroxy-9-pentyl-7-[2-[(2R,3S,4R,5S,6R)-3,4,5-trihydroxy-6-(hydroxymethyl)tetrahydropyran-2-yl]ethynyl]fluoren-2-yl]ethynyl]tetrahydropyran-3,4,5-triol]",5.5
3,"OC[C@H]1O[C@H](C#Cc2ccc3c(c2)C(O)(C2CC2)c2cc(C#C[C@H]4O[C@H](CO)[C@@H](O)[C@H](O)[C@@H]4O)ccc2-3)[C@@H](O)[C@@H](O)[C@@H]1O (stereo partly drawn) [Compound 114, (2R,3S,4R,5S,6R)-2-[2-[9-cyclopropyl-9-hydroxy-7-[2-[(2R,3S,4R,5S,6R)-3,4,5-trihydroxy-6-(hydroxymethyl)tetrahydropyran-2-yl]ethynyl]fluoren-2-yl]ethynyl]-6-(hydroxymethyl)tetrahydropyran-3,4,5-triol]",1.2
4,"CC1(O)c2cc(C#C[C@H]3O[C@H](CO)[C@@H](O)[C@H](O)[C@@H]3O)ccc2-c2ccc(C#C[C@H]3O[C@H](CO)[C@@H](O)[C@H](O)[C@@H]3O)cc21 [Compound 115, (2R,3S,4R,5S,6R)-2-(hydroxymethyl)-6-[2-[9-hydroxy-9-methyl-7-[2-[(2R,3S,4R,5S,6R)-3,4,5-trihydroxy-6-(hydroxymethyl)tetrahydropyran-2-yl]ethynyl]fluoren-2-yl]ethynyl]tetrahydropyran-3,4,5-triol]",3.9
5,"OC[C@H]1O[C@H](C#Cc2ccc3c(c2)C(F)(F)c2cc(C#C[C@H]4O[C@H](CO)[C@@H](O)[C@H](O)[C@@H]4O)ccc2-3)[C@@H](O)[C@@H](O)[C@@H]1O [Compound 116, (2R,3S,4R,5S,6R)-2-[2-[9,9-difluoro-7-[2-[(2R,3S,4R,5S,6R)-3,4,5-trihydroxy-6-(hydroxymethyl)tetrahydropyran-2-yl]ethynyl]fluoren-2-yl]ethynyl]-6-(hydroxymethyl)tetrahydropyran-3,4,5-triol]",8.1
6,"OC[C@H]1O[C@H](C#Cc2ccc3c(c2)CCc2cc(C#C[C@H]4O[C@H](CO)[C@@H](O)[C@H](O)[C@@H]4O)ccc2-3)[C@@H](O)[C@@H](O)[C@@H]1O [Compound 117, (2R,3S,4R,5S,6R)-2-(hydroxymethyl)-6-[2-[7-[2-[(2R,3S,4R,5S,6R)-3,4,5-trihydroxy-6-(hydroxymethyl)tetrahydropyran-2-yl]ethynyl]-9,10-dihydrophenanthren-2-yl]ethynyl]tetrahydropyran-3,4,5-triol]",23
7,"OC[C@H]1O[C@H](C#Cc2ccc3c(c2)[nH]c2cc(C#C[C@H]4O[C@H](CO)[C@@H](O)[C@H](O)[C@@H]4O)ccc23)[C@@H](O)[C@@H](O)[C@@H]1O [Compound 118, (2R,3S,4R,5S,6R)-2-(hydroxymethyl)-6-[2-[7-[2-[(2R,3S,4R,5S,6R)-3,4,5-trihydroxy-6-(hydroxymethyl)tetrahydropyran-2-yl]ethynyl]-9H-carbazol-2-yl]ethynyl]tetrahydropyran-3,4,5-triol]",22
8,"O=C1c2cc(C#C[C@H]3O[C@H](CO)[C@@H](O)[C@H](O)[C@@H]3O)ccc2-c2ccc(C#C[C@H]3O[C@H](CO)[C@@H](O)[C@H](O)[C@@H]3O)cc21 [Compound 119, 2,7-bis[2-[(2R,3S,4R,5S,6R)-3,4,5-trihydroxy-6-(hydroxymethyl)tetrahydropyran-2-yl]ethynyl]fluoren-9-one]",14
9,"CC1(C)c2cc(C#C[C@H]3O[C@H](CO)[C@@H](O)[C@H](O)[C@@H]3O)ccc2-c2ccc(C#C[C@H]3O[C@H](CO)[C@@H](O)[C@H](O)[C@@H]3O)cc21 [Compound 120, (2R,3S,4R,5S,6R)-2-[2-[9,9-dimethyl-7-[2-[(2R,3S,4R,5S,6R)-3,4,5-trihydroxy-6-(hydroxymethyl)tetrahydropyran-2-yl]ethynyl]fluoren-2-yl]ethynyl]-6-(hydroxymethyl)tetrahydropyran-3,4,5-triol]",1.2
10,"Cc1cc(-c2ccc(C#C[C@H]3O[C@H](CO)[C@@H](O)[C@H](O)[C@@H]3O)c(C)c2)ccc1C#C[C@H]1O[C@H](CO)[C@@H](O)[C@H](O)[C@@H]1O [Compound 121, (2R,3S,4R,5S,6R)-2-(hydroxymethyl)-6-[2-[2-methyl-4-[3-methyl-4-[2-[(2R,3S,4R,5S,6R)-3,4,5-trihydroxy-6-(hydroxymethyl)tetrahydropyran-2-yl]ethynyl]phenyl]phenyl]ethynyl]tetrahydropyran-3,4,5-triol]",12
11,"CC(C)(c1ccc(C#C[C@H]2O[C@H](CO)[C@@H](O)[C@H](O)[C@@H]2O)cc1)c1ccc(C#C[C@H]2O[C@H](CO)[C@@H](O)[C@H](O)[C@@H]2O)cc1 [Compound 122, (2R,3S,4R,5S,6R)-2-(hydroxymethyl)-6-[2-[4-[1-methyl-1-[4-[2-[(2R,3S,4R,5S,6R)-3,4,5-trihydroxy-6-(hydroxymethyl)tetrahydropyran-2-yl]ethynyl]phenyl]ethyl]phenyl]ethynyl]tetrahydropyran-3,4,5-triol]",29
12,"OC[C@H]1O[C@H](C#Cc2cc3cc(C#C[C@H]4O[C@H](CO)[C@@H](O)[C@H](O)[C@@H]4O)sc3s2)[C@@H](O)[C@@H](O)[C@@H]1O [Compound 123, (2R,3S,4R,5S,6R)-2-(hydroxymethyl)-6-[2-[5-[2-[(2R,3S,4R,5S,6R)-3,4,5-trihydroxy-6-(hydroxymethyl)tetrahydropyran-2-yl]ethynyl]thieno[2,3-b]thiophen-2-yl]ethynyl]tetrahydropyran-3,4,5-triol]",41
13,"Cc1cc(C#C[C@H]2O[C@H](CO)[C@@H](O)[C@H](O)[C@@H]2O)ccc1-c1ccc(C#C[C@H]2O[C@H](CO)[C@@H](O)[C@H](O)[C@@H]2O)cc1C [Compound 124, (2R,3S,4R,5S,6R)-2-(hydroxymethyl)-6-[2-[3-methyl-4-[2-methyl-4-[2-[(2R,3S,4R,5S,6R)-3,4,5-trihydroxy-6-(hydroxymethyl)tetrahydropyran-2-yl]ethynyl]phenyl]phenyl]ethynyl]tetrahydropyran-3,4,5-triol]",27
14,"COc1c(C#C[C@H]2O[C@H](CO)[C@@H](O)[C@H](O)[C@@H]2O)ccc2c(OC)c(C#C[C@H]3O[C@H](CO)[C@@H](O)[C@H](O)[C@@H]3O)ccc12 [Compound 125, (2R,3S,4R,5S,6R)-2-[2-[1,5-dimethoxy-6-[2-[(2R,3S,4R,5S,6R)-3,4,5-trihydroxy-6-(hydroxymethyl)tetrahydropyran-2-yl]ethynyl]-2-naphthyl]ethynyl]-6-(hydroxymethyl)tetrahydropyran-3,4,5-triol]",54
15,"OC[C@H]1O[C@H](C#Cc2ccc3nc(C#C[C@H]4O[C@H](CO)[C@@H](O)[C@H](O)[C@@H]4O)ccc3c2)[C@@H](O)[C@@H](O)[C@@H]1O [Compound 126, (2R,3S,4R,5S,6R)-2-(hydroxymethyl)-6-[2-[2-[2-[(2R,3S,4R,5S,6R)-3,4,5-trihydroxy-6-(hydroxymethyl)tetrahydropyran-2-yl]ethynyl]-6-quinolyl]ethynyl]tetrahydropyran-3,4,5-triol]",124
16,"OC[C@H]1O[C@H](C#Cc2ccc3nc(C#C[C@H]4O[C@H](CO)[C@@H](O)[C@H](O)[C@@H]4O)ncc3c2)[C@@H](O)[C@@H](O)[C@@H]1O [Compound 127, (2R,3S,4R,5S,6R)-2-(hydroxymethyl)-6-[2-[2-[2-[(2R,3S,4R,5S,6R)-3,4,5-trihydroxy-6-(hydroxymethyl)tetrahydropyran-2-yl]ethynyl]quinazolin-6-yl]ethynyl]tetrahydropyran-3,4,5-triol]",43
17,"OC[C@H]1O[C@H](C#Cc2coc(C#C[C@H]3O[C@H](CO)[C@@H](O)[C@H](O)[C@@H]3O)n2)[C@@H](O)[C@@H](O)[C@@H]1O [Compound 129, (2R,3S,4R,5S,6R)-2-(hydroxymethyl)-6-[2-[2-[2-[(2R,3S,4R,5S,6R)-3,4,5-trihydroxy-6-(hydroxymethyl)tetrahydropyran-2-yl]ethynyl]oxazol-4-yl]ethynyl]tetrahydropyran-3,4,5-triol]",1240
18,"OC[C@H]1O[C@H](C#Cc2ccc(C#C[C@H]3O[C@H](CO)[C@@H](O)[C@H](O)[C@@H]3O)c3cnccc23)[C@@H](O)[C@@H](O)[C@@H]1O [Compound 130, (2R,3S,4R,5S,6R)-2-(hydroxymethyl)-6-[2-[8-[-2-[(2R,3S,4R,5S,6R)-3,4,5-trihydroxy-6-(hydroxymethyl)tetrahydropyran-2-yl]ethynyl]-5-isoquinolyl]ethynyl]tetrahydropyran-3,4,5-triol]",67
19,"OC[C@H]1O[C@H](C#Cc2ccc(C#C[C@H]3O[C@H](CO)[C@@H](O)[C@H](O)[C@@H]3O)c3nsnc23)[C@@H](O)[C@@H](O)[C@@H]1O [Compound 131, (2R,3S,4R,5S,6R)-2-(hydroxymethyl)-6-[2-[4-[2-[(2R,3S,4R,5S,6R)-3,4,5-trihydroxy-6-(hydroxymethyl)tetrahydropyran-2-yl]ethynyl]-2,1,3-benzothiadiazol-7-yl]ethynyl]tetrahydropyran-3,4,5-triol]",128
